Experimental data taken from PubChem BioAssay (NCI).
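The compound was tested at five concentrations on cells cultured in 96-well plates, with a 48-hour exposure period. TGI is the concentration that stops growth completely.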 Where a SMILES comes first, the peptide text is derived from it. [ ]: non-standard residue; d: D form.

Tests used:
Test in all cases: growth of human tumour cells (NCI), 48 h
[1] = test system: SNB-19 CNS
[2] = test system: HT29 colon
[3] = test system: A498 renal
[4] = test system: DMS 273 small cell lung
[5] = test system: LXFL 529 NSCLC
[6] = test system: DMS 114 small cell lung
[7] = test system: HCT-15 colon
[8] = test system: HOP-18 NSCLC
[9] = test system: ACHN renal
[10] = test system: XF 498 CNS
[11] = test system: M19-MEL melanoma
[12] = test system: COLO 205 colon
[13] = test system: KM20L2 colon
[14] = test system: OVCAR-5 ovarian

`CC(Oc1ccc(OCC2CCCCC2)cc1)C(=O)NCc1ccco1` (configuration not stated) was tested, and the TGI [1] was > 100 µM, the TGI [2] was 46.6 µM and the TGI [3] was 86.7 µM. The TGI [4] was 94.1 µM, the TGI [5] was > 100 µM and the TGI [6] was 56.6 µM. The TGI [7] was > 100 µM, the TGI [8] was > 100 µM and the TGI [9] was > 100 µM. For the same molecule, the TGI [10] was > 100 µM and the TGI [11] was > 100 µM.

For `O=C1c2ccccc2N2Oc3ccccc3C12c1ccccc1` (configuration not stated), the TGI [1] was > 100 µM, the TGI [2] was > 100 µM and the TGI [12] was > 100 µM. For the same molecule, the TGI [3] was > 100 µM, the TGI [4] was > 100 µM and the TGI [5] was > 100 µM. For the same molecule, the TGI [13] was > 100 µM, the TGI [6] was > 100 µM and the TGI [7] was > 100 µM. For the same molecule, the TGI [8] was > 100 µM, the TGI [9] was > 100 µM and the TGI [11] was > 100 µM.

In the case of `Nc1nc(-c2ccco2)cc(-c2ccc(CO)o2)n1`, the TGI [14] is reported as > 100 µM, the TGI [1] is reported as > 100 µM and the TGI [2] is reported as > 100 µM. For the same molecule, the TGI [12] was > 100 µM, the TGI [4] was > 100 µM and the TGI [5] was > 100 µM. The TGI [13] was > 100 µM, the TGI [6] was > 100 µM and the TGI [7] was > 100 µM. The TGI [9] was > 100 µM, the TGI [10] was > 100 µM and the TGI [11] was > 100 µM.

`CC(C)Oc1c(-c2ccc(F)cc2)c(O)c2c3c1oc(=O)n3C=CC2C` (configuration not stated) showed a TGI [14] of 62.2 µM, a TGI [1] of 31.9 µM and a TGI [2] of 30.2 µM. The TGI [12] was 32.2 µM, the TGI [3] was 28.2 µM and the TGI [7] was 29.7 µM. For the same molecule, the TGI [9] was 27.6 µM.

With `CC(=O)OC(C)(C)CCC(=O)[C@](C)(O)[C@H]1[C@H](O)C[C@@]2(C)[C@@H]3CCc4c(cc(OC5OC(CO)C(O)C(O)C5O)c(O)c4C)C3(C)C(=O)C[C@]12C` (some centres not stated) the TGI [14] was > 100 µM, the TGI [1] was > 100 µM and the TGI [2] was > 100 µM. For the same molecule, the TGI [12] was > 100 µM, the TGI [3] was > 100 µM and the TGI [7] was > 100 µM. For the same molecule, the TGI [9] was > 100 µM.

For `Fc1ccc(C(OCCN2CC3CCC(C2)N3CCCc2ccccc2)c2ccc(F)cc2)cc1`, the TGI [14] was 23.3 µM, the TGI [1] was 22.1 µM and the TGI [2] was 13.7 µM. The TGI [12] was 2.74 µM, the TGI [3] was 17.7 µM and the TGI [7] was 12.2 µM. For the same molecule, the TGI [9] was 22.4 µM.

With `CC(=O)CC1=C(OC(C)C)C2(OCCO2)C1O` (configuration not stated) the TGI [14] was > 100 µM, the TGI [1] was > 100 µM and the TGI [2] was > 100 µM. The TGI [12] was > 100 µM, the TGI [3] was > 100 µM and the TGI [7] was > 100 µM. For the same molecule, the TGI [9] was > 100 µM.

In the case of `CC1(C)[C@@H]2C[C@H]1c1cnc(-c3ccccn3)cc1C2CCCCC[C@@H]1c2cc(-c3ccccn3)ncc2[C@@H]2C[C@H]1C2(C)C` (some centres not stated), the TGI [14] is reported as > 100 µM, the TGI [1] is reported as > 100 µM and the TGI [2] is reported as > 33.3 µM. The TGI [12] was > 32.8 µM, the TGI [3] was 8.92 µM and the TGI [7] was > 100 µM. The TGI [9] was > 100 µM.

With `CC(C)C[C@H](NC(=O)[C@H](CC(C)C)NC(=O)[C@@H](Cc1c[nH]c2ccccc12)NC(=O)[C@H](Cc1ccccc1)NC(=O)[C@@H](Cc1c[nH]c2ccccc12)NC(=O)[C@H](CCC(N)=O)NC(=O)[C@H](CCC(N)=O)NC(=O)[C@H]1CCCN1C(=O)[C@@H](N)CCCCN)C(N)=O` (H-K[dP]QQ[dW]F[dW]LL-NH2) the TGI [14] was > 100 µM, the TGI [1] was > 100 µM and the TGI [2] was > 100 µM. For the same molecule, the TGI [12] was > 100 µM, the TGI [3] was > 100 µM and the TGI [4] was > 100 µM. The TGI [13] was > 100 µM, the TGI [7] was > 100 µM and the TGI [8] was > 100 µM. The TGI [10] was > 100 µM and the TGI [11] was > 100 µM.

With `Cc1ccc(N/C(SCc2ccccc2)=C(\C(Cl)=C(Cl)Cl)[N+](=O)[O-])c(C)c1` the TGI [14] was 89.8 µM, the TGI [1] was > 100 µM and the TGI [2] was > 100 µM. The TGI [12] was 31.6 µM, the TGI [3] was 74.1 µM and the TGI [7] was 34.9 µM. The TGI [9] was > 100 µM.

`c1ccc2c(c1)OC(N1CCCC1)c1cnc(N3CCOCC3)nc1-2` (configuration not stated) was tested, and the TGI [14] was 79.1 µM, the TGI [1] was > 100 µM and the TGI [2] was > 100 µM. The TGI [12] was > 100 µM, the TGI [3] was 39.7 µM and the TGI [7] was > 100 µM. For the same molecule, the TGI [9] was > 100 µM.

In the case of `O=C1CC(NCc2ccccc2)c2c(Cl)sc(Cl)c21` (configuration not stated), the TGI [14] is reported as > 100 µM, the TGI [1] is reported as > 100 µM and the TGI [2] is reported as 74.5 µM. For the same molecule, the TGI [12] was 56 µM, the TGI [3] was > 100 µM and the TGI [7] was 46.9 µM. For the same molecule, the TGI [9] was 52.8 µM.
